How the values were obtained:
[1] = molecular target: T1, human Nav1.7 R1599P (rpNav1.7) (Homo sapiens, UniProt Q15858, R1610P); assay: Long-term inactivation of rpNav1.7; format: cell-based
T1 construct: expressed in transfected cells; host or cells: HEK293 cells, transient transfection with pcDNA3.1 construct

[2] = molecular target: T1, human Nav1.7 R1599P (rpNav1.7); assay: Inhibition of Navβ4 peptide-mediated rpNav1.7 INaR; format: cell-based; details: 100 μM Navβ4 peptide + 1 mM FHF4A peptide, HEK293; n = 5
[3] = system: human Nav1.8; assay: INaR, Nav1.8 co-expressed with FHF2B; format: cell-based
Protocol: (§1) HEK293 cells and ND7/23 cells were grown under standard tissue culture conditions (5% CO2 and 37°C) in DMEM supplemented with 10% FBS, 1% penicillin and 1% streptomycin. Using Invitrogen Lipofectamine 2000, human Nav1.7 R1599P (rpNav1.7) and the mutant constructs were transiently co-transfected with Navβ1 and Navβ2 into HEK293 cells. The constructs human Nav1.8 and mutants were transiently co-transfected with FHF2B or FHF4A into ND7/23 cells. The lipofectamine-DNA mixture was added to the cell culture medium and left for 3 h after which the cells were washed with fresh medium. Cells with green fluorescent protein fluorescence were selected for whole-cell patch-clamp recordings 36–72 h after transfection.
(§2) Whole-cell voltage-clamp recordings were performed at room temperature (~21°C) using an EPC-10 amplifier and the Pulse program (HEKA Electronics). Fire-polished electrodes (0.7–1.0 MΩ) were fabricated from 1.7 mm capillary glass using a P-97 puller (Sutter Instruments), and the tips were coated with sticky wax (KerrLab) to reduce electrode capacitance and enable increased series resistance compensation. The pipette solution contained (in mM) 140 CsF, 1.1 EGTA, 10 NaCl, and 10 HEPES, pH 7.3. The bathing solution was (in mM) 130 mM NaCl, 30 mM TEA chloride, 1 mM MgCl2, 3 mM KCl, 1 mM CaCl2, 10 mM HEPES, and 10 mM d-glucose, pH 7.3 (adjusted with NaOH). […] The offset potential was zeroed before contacting the cell. After establishing the whole-cell recording configuration, the resting potential was held at −120 or −100 mV for 5 min to allow adequate equilibration between the micropipette solution and the cell interior. Linear leak subtraction, based on resistance estimates from four to five hyperpolarizing pulses applied before the depolarizing test potential, was used for all voltage clamp recordings. Membrane currents were usually filtered at 5 kHz and sampled at 20 kHz. […] Voltage errors were minimized using 80–95% series resistance compensation, and the capacitance artifact was canceled using the computer-controlled circuitry of the patch clamp amplifier. […] The concentration-dependent curves were fitted to a hill equation: Y = Bottom + (Top-Bottom)/(1 + 10^((LogEC50-X)*HillSlope)).
(§3) INaR: INaR was elicited by repolarizing voltage steps from +20 to −80 mV for 100 ms (or 200 ms) in −5 mV increments, following a 20-ms depolarizing potential of +30 mV. […] The relative INaR in Nav1.7 and Nav1.8 was calculated by normalizing to the peak transient current elicited at −10 or 0 mV.

[4] = system: Nav1.8 Y387K; assay: INaR, Nav1.8 mutant Y387K; format: cell-based, human; details: 1 mM FHF4A peptide, + FHF2B, ND7/23; n = 8; p > 0.05 vs Nav1.8
Protocol: as §1
(§4) Whole-cell voltage-clamp recordings were performed at room temperature (~21°C) using an EPC-10 amplifier and the Pulse program (HEKA Electronics). […]
as §3

[5] = system: Nav1.8 N390K; assay: INaR, Nav1.8 mutant N390K; format: cell-based, human; details: 1 mM FHF4A peptide
Protocol: as §1, §4, §3

[6] = system: Nav1.8 N891S; assay: INaR, Nav1.8 mutant N891S; format: cell-based, human; details: 1 mM FHF4A peptide, + FHF2B, ND7/23; −80 to +20 mV; n = 6
Protocol: as §1, §4, §3

[7] = system: human Nav1.8; assay: Gating properties (steady-state activation, inactivation, INaP), Nav1.8; format: cell-based
Protocol: as §1, §2
(§5) Families of sodium currents were induced by 50-ms depolarizing steps to various potentials ranging from −120 (or −100) to +40 mV in 5-mV increments. The conductance was calculated using the equation G(Nav) = I/(V - Vrev) in which I, V, and Vrev represent inward current value, membrane potential, and reversal potential, respectively.
Voltage dependence of steady-state inactivation was estimated using a standard double pulse protocol in which sodium currents were induced by a 50-ms depolarizing potential of 0 mV following a 500-ms prepulse at potentials that ranged from −150 to +10 mV with a 10-mV increment. Currents were plotted as a fraction of the maximum peak current. To obtain the midpoint voltages (V1/2) and slope factor (k), the curves of both steady-state activation and inactivation were fitted to a Boltzmann function.

[8] = system: Nav1.8 N390K; assay: Gating properties, Nav1.8 mutant N390K; format: cell-based, human; details: 1 mM FHF4A peptide
Protocol: as §1, §2
as §5, with “respectively. […]” for “respectively.”

[9] = system: Nav1.8 N891S; assay: Gating properties, Nav1.8 mutant N891S; format: cell-based, human; details: 1 mM FHF4A peptide
Protocol: as §1, §2
as §5, with “respectively. […]” for “respectively.”

[10] = system: Nav1.8; details: n = 6, ref Xiao et al., 2022; cited from earlier work
Description: Increased INaR may result from destabilizing fast inactivation or increasing “window currents” of VGSCs ([Xiao et al., 2019]).

[11] = system: Nav1.8; details: ref Xiao et al., 2022; cited from earlier work
Description: This mechanism requires that the peptides compete with the fast inactivation particle to block open VGSCs at strong positive potentials and unblocks upon repolarization so that the channels can reconduct ([Cannon and Bean, 2010]).

[12] = system: Nav1.8; details: ref Xiao et al., 2022; cited from earlier work; remark: listed apart in the source
Description: Next, we investigated if FHF4A, another INaR mediator reported recently ([White et al., 2019]; [Xiao et al., 2022]), shares the receptor site in VGSCs with Navβ4 peptide. […] They consist of a long N-terminus, an FGF-like β-trefoil core, and a short C-terminus ([Goldfarb, 2005]). They display an intrinsic capability to generate INaR, to a varying extent, in Nav1.8 and Nav1.9.

[13] = Nav1.8 + FHF2B, ND7/23, 1 mM FHF4A peptide
[14] = Nav1.8 + FHF2B, ND7/23, 1 mM, held at −100 mV, scramble n = 8, FHF4A peptide n = 10, p > 0.05

T1 sequence (Q15858 1-1977 isoform Q15858-3 R1599P): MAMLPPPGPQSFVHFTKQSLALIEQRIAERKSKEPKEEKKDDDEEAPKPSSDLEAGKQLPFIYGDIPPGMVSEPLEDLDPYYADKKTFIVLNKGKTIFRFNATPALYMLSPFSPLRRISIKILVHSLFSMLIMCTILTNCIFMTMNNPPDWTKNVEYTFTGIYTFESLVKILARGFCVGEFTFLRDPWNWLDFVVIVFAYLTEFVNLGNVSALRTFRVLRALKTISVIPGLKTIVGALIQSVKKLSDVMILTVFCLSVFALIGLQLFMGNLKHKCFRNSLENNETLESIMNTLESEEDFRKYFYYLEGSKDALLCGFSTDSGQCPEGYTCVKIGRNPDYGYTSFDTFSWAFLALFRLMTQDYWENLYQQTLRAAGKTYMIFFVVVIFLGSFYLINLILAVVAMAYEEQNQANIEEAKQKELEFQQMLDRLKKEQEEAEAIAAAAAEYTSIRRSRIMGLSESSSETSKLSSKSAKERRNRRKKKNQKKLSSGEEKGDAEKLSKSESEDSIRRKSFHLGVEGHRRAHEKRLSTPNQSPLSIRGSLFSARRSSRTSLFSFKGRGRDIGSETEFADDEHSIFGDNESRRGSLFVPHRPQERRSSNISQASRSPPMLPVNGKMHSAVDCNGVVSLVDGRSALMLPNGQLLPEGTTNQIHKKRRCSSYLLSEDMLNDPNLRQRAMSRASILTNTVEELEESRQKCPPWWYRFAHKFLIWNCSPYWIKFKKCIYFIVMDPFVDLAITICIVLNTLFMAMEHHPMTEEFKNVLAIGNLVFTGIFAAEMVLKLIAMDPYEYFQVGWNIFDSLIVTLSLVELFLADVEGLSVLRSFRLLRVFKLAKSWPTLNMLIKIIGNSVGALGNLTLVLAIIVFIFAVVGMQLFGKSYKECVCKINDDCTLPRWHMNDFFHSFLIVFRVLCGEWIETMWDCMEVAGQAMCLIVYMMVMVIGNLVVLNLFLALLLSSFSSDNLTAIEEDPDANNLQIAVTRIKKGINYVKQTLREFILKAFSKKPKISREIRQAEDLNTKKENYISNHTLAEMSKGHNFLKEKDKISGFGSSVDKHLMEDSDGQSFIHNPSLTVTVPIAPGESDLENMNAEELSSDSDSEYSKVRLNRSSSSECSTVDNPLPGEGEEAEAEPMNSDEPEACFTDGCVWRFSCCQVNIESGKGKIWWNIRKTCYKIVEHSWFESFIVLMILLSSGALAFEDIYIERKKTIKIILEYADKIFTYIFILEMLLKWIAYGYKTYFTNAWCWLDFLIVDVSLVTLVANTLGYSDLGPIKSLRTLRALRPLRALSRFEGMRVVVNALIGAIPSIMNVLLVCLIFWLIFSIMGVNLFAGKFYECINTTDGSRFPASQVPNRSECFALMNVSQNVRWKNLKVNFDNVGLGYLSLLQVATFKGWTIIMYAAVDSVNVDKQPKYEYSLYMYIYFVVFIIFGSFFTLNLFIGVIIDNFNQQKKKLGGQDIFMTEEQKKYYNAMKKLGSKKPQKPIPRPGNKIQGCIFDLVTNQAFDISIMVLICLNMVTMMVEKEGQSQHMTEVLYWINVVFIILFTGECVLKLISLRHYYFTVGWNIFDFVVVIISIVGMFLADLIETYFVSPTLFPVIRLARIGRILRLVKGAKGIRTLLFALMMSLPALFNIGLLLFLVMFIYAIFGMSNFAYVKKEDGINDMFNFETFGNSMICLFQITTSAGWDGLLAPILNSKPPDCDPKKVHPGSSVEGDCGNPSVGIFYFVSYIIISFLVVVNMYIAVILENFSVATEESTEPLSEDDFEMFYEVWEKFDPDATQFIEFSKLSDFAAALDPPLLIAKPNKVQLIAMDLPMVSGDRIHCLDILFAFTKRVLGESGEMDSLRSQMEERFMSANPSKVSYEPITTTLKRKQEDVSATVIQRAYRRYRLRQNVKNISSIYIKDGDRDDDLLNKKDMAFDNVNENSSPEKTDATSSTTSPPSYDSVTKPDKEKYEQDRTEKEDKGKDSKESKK
T1 sequence (Q07699 19-218 partner): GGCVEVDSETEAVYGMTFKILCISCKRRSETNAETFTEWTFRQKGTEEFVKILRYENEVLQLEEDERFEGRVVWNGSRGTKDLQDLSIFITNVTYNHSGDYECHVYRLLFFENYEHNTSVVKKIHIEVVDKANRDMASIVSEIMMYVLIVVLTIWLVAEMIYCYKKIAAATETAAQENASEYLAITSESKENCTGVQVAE
T1 sequence (O60939 30-215 partner): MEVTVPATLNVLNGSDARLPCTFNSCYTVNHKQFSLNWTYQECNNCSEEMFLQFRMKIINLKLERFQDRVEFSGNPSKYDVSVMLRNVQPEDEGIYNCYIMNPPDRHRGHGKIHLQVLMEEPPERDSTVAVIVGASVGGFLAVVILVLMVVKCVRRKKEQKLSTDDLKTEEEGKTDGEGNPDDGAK

## AAAIASGLIRQKRQAREQHW [FHF4A peptide, synthetic 20-residue peptide from FHF4A A2 – W21]
[1]; 1 mM FHF4A peptide, HEK293
  effect on long-term inactivation of rpNav1.7: evidently enhanced accumulation of long-term inactivation of rpNav1.7
[1]; rpNav1.7, HEK293, 1 mM, six 16-ms pulses of −10 mV from −100 mV, 40-ms interpulse, scramble n = 6, FHF4A peptide n = 5, p < 0.0001
  fraction of the current elicited at the 6th pulse: 0.21 ± 0.03
[2]
  inhibition of Navβ4 peptide-mediated rpNav1.7 INaR: inhibited completely
[3]; Nav1.8 + FHF2B, ND7/23, 500 nM TTX, 1 mM peptide intracellular, measured after 20 ms into repolarization, mean ± S.E., n = 9
  average FHF4A peptide mediated INaR amplitude (peak, −15 mV), Nav1.8: 4.8% ± 0.5%
[3]; [13]
  potential at which INaR peaked: −15 mV
  range of voltages at which INaR observed: −40 to +20 mV
[3]; concentration-dependent curve, 1 mM
  saturation of effect on INaR: did not saturate at 1 mM
[4]
  average INaR amplitude at −15 mV, Y387K: 5.3% ± 0.5%
[5]
  voltage dependence of INaR, N390K: slightly shifted the voltage dependence of Nav1.8 INaR to more positive potentials
[5]; + FHF2B, ND7/23, n = 7, p > 0.05 vs Nav1.8
  average INaR amplitude at −15 mV, N390K: 4.4% ± 0.7%
[6]
  INaR, N891S: no INaR was induced
[7]; Nav1.8 + FHF2B, ND7/23, FHF4A peptide
  effect on steady-state activation or inactivation: did not alter steady-state activation or inactivation
[7]; [14]
  V1/2 (activation), Nav1.8, Figure 6: −12.5 ± 1.7 mV
  V1/2 (inactivation), Nav1.8, Figure 6: −42.4 ± 4.3 mV
[7]; end of 50-ms pulse of +10 mV, normalized to peak transient current, 1 mM FHF4A peptide, n = 9
  INaP, Nav1.8: 3.0 ± 1.8 (9) %
[8]
  V1/2 of steady-state inactivation, N390K vs Nav1.8: None of four lysine-mutations significantly changed the V1/2 value of steady-state inactivation
[8]; + FHF2B, ND7/23, n = 7
  Activation (V1/2), N390K: −9.7 ± 1.8 (7) mV
  Inactivation (V1/2), N390K: −33.5 ± 1.0 (7) mV
[8]; end of 50-ms pulse of +10 mV, normalized to peak transient current, n = 7, *p < 0.05
  INaP, N390K: 5.6 ± 2.2^* (7) %
[9]
  steady-state activation or inactivation, N891S vs Nav1.8: no effect on steady-state activation or inactivation
[9]; + FHF2B, ND7/23, n = 6
  Activation (V1/2), N891S: −8.6 ± 2.1 (6) mV
  Inactivation (V1/2), N891S: −36.4 ± 0.7 (6) mV
[9]; end of 50-ms pulse of +10 mV, normalized to peak transient current, n = 6, ***p < 0.0001
  INaP, N891S: 1.1 ± 0.5^*** (6) %
[10]
  FHF4A peptide mediated Nav1.8 INaR without FHF2B (control): 2.5% ± 0.4%
[11]
  effect on fast inactivation after Nav1.8 opens: accelerates fast inactivation after Nav1.8 opens
[12]
  Nav1.8 INaR reconstitution by FHF4A A2 – W21 peptide: could reconstitute the Nav1.8 INaR mediated by full-length FHF4A

Source: PMC11480954, “Molecular determinants of resurgent sodium currents mediated by Navβ4 peptide and A-type FHFs” (Frontiers in Molecular Neuroscience, 2024)
